Here are results for one compound from PMC6268972, “Antiproliferative, Antimicrobial and Apoptosis Inducing Effects of Compounds Isolated from Inula viscosa” (Molecules, 2012).

The subject of assay [1] is MCF-7 cells. The experiment in a line: MTT antiproliferative activity assay, MCF-7. It counts as cell-based, human. The following applies: Homo sapiens, MCF7; MTT, 48 h treatment, average of three replicates; read-out: IC50 MCF-7. The protocol: (§1) Hep-2 (larynx carcinoma, ATCC: CCL-23), MCF-7 (breast epithelial adenocarcinoma, ATCC: HTB-22), and Vero (African green monkey kidney, ATCC: CCL-81) cell lines were kindly provided by Dr. Mona Hassuneh (Department of Biological Sciences, University of Jordan). Cells were grown in Minimum Essential Medium Eagle (Gibco, Paisley UK) supplemented with 10% heat inactivated fetal bovine serum (Gibco, Paisley UK), 29 μg/mL L-glutamine, and 40 μg/mL gentamicin. Cells were incubated in a humidified atmosphere of 5% CO2 at 37 °C.
(§2) The antiproliferative activity of Inula viscosa compounds was measured using the MTT (3-(4,5-dimethylthiazol-2-yl)-2,5-diphenyltetrazolium bromide) assay (Promega, Madison, WI, USA). The assay detects the reduction of MTT by mitochondrial dehydrogenase to blue formazan product, which reflects the normal function of mitochondria and cell viability. Exponentially growing cells were washed and seeded at 17,000 cells/well for Hep-2 cell line and 11,000 cells/ well for MCF-7 cell line (in 200 μL of growth medium) in 96 well microplates (Nunc, Roskilde, Denmark). After 24 h incubation, a partial monolayer was formed then the media was removed and 200 μL of the medium containing the compound (initially dissolved in DMSO) were added and re-incubated for 48 h. Then 100 μL of the medium were aspirated and 15 μL of the MTT solution were added to the remaining medium (100 μL) in each well. After 4 h contact with the MTT solution, blue crystals were formed. One hundred μL of the stop solution were added and incubated further for 1 h.
(§3) Reduced MTT was assayed at 550 nm using a microplate reader (Biotek, Winooski, VT, USA). Control groups received the same amount of DMSO (0.1%).Untreated cells were used as a negative control while, cells treated with vincristine sulfate were used as a positive control. Eight concentrations (150, 100, 50, 20, 10, 5, 2, and 1 μg/mL) were prepared from each compound and tested against the three cell lines. IC50 values were calculated as the concentrations that show 50% inhibition of proliferation on any tested cell line. Stock solutions of the compounds were dissolved in (DMSO) then diluted with the medium and sterilized using 0.2 μm membrane filters. The toxicity of DMSO was determined and the final dilution of compounds used for treating the cells contained not more than 0.1% (non toxic concentration) DMSO. IC50 values were reported as the average of three replicates. The antiproliferative effect of the tested compounds was determined by comparing the optical density of the treated cells against the optical density of the control (cells treated with media containing 0.1% DMSO).
On the technique in general: Formazan colour is commonly taken as a measure of viable cells.

Assay [2] has as its system Vero cells. The experiment in a line: MTT antiproliferative activity assay, Vero. It counts as cell-based, African green monkey. The following applies: Chlorocebus sabaeus, Vero; MTT, 48 h treatment, average of three replicates; read-out: IC50 Vero. The protocol:
as §1, §2, §3

Assay [3] has as its system Methicillin resistant Staphylococcus aureus (MRSA). The experiment in a line: Microtiter plate dilution MIC, MRSA. Particulars: Staphylococcus aureus, MRSA; clinical isolate, 24 h, 100% inhibition; read-out: Minimum inhibitory concentration (MIC) MRSA. It counts as cell-based. The protocol: (§4) The microbial strains used in this study were Escherichia coli (ATCC 10798), Salmonella typhimurium (ATCC14028), Methicillin resistant Staphylococcus aureus (MRSA, Clinical isolate), Bacillus cereus (Toxigenic strain TS), and Candida albicans (ATCC 90028). Bacterial strains were stocked onto nutrient agar slant at 4 °C, and Candida albicans was stocked onto malt agar slant at 4 °C.
(§5) The microtiter plate dilution method was used to determine the MIC (minimum inhibitory concentration) of compounds under study. Sterile 96-well microplates (Nunc) were used for the assay. Stock compounds were dissolved in DMSO so that the final concentrations in micro wells were less than 1% DMSO and solvent controls were run at these concentrations. Positive controls of penicillin G and tetracycline (Oxoid, Hampshire, UK) were prepared at the following concentrations 2, 4, 8, 16, 31, 62.5, 125, and 250 μg/mL. 1% DMSO was used as a solvent control. Compounds were diluted to twice the desired initial test concentration (250 µg/mL) with Muller Hinton broth (MHB) (Oxoid). All wells, except the first were filled with MHB (50 μL). Compounds (100 μL) were added to the first well and serial two-fold dilutions were made down to the desired minimum concentration (2 μg/mL). An over-night culture of bacteria suspended in MHB was adjusted to turbidity equal to 0.5 McFarland standard. The plates were inoculated with bacterial suspension (50 μL/well) and incubated at 37 °C for 24 h. Then the turbidity was measured using micro-plate reader (Biotek) at 620 nm wavelength. The same procedure was used to determine the antifungal activity of compounds against Candida albicans. The medium used was malt extract broth. The yeast cells were suspended in 0.85% saline, with an optical density equivalent to 0.5 McFarland standard, and diluted 1:100 in malt extract broth to obtain the working concentration. After 24 h incubation with each compound, the turbidity was measured at 530 nm wavelength using a spectrophotometer (Biotek). Percentage inhibition for tested microorganisms was calculated using the following formula:
(§6) MIC was determined as the lowest concentration of the compound that causes complete inhibition (100%) of each microorganism.

The test system of assay [4] is Escherichia coli. The experiment in a line: Microtiter plate dilution MIC, E. coli. It counts as cell-based. Particulars: Escherichia coli, ATCC10798; ATCC 10798, 24 h, 100% inhibition; read-out: Minimum inhibitory concentration (MIC) E.c. As to the method: as §4, §5, §6
The subject of assay [5] is Salmonella typhimurium. The experiment in a line: Microtiter plate dilution MIC, S. typhimurium. It counts as cell-based. The following applies: Salmonella enterica, ATCC 14028 / TYPHIMURIUM; ATCC14028, 24 h, 100% inhibition; read-out: Minimum inhibitory concentration (MIC) S.t. The protocol: as §4, §5, §6
The subject of assay [6] is Bacillus cereus. The assay can be described thus: Scanning electron microscopy of Bacillus cereus cells. It counts as cell-based. Particulars: 62.5 µg/mL, 24 h. The protocol: MCF-7 cells were cultured in complete DMEM containing either 15 µg/mL of 3-O-methylquercetin or 3,3′-di-O-methylquercetin and incubated for 48 h in humidified CO2 incubator. Negative control cells were incubated with complete DMEM and positive control cells received complete DMEM containing 40 nM vincristin sulfate. Treated cells were fixed with 3% glutaraldehyde for 1.5 h followed by osmium tetroxide (2% in PBS) for 1 h. After fixation, cells were washed in PBS and sequentially dehydrated using 30%, 70%, and 100% ethanol. Fixed cells were attached to a metal stubs and sputter coated with platinum by using Emitech K550X coating unit (Qourum Technology, West Sussex, UK). The coated specimens were viewed using Inspect F50/FEG scanning electron microscope (FEI, Eindhoven, The Netherlands) at accelerating voltage of 2–5 kV. Bacillus cereus cells treated with 3,3′-di-O-methylquercetin for 24 h were collected by centrifugation and washed with sodium phosphate buffer. Following that, the samples were fixed in 2.5% glutaraldehyde in 0.1 M phosphate buffer, pH 7.3, at 4 °C overnight, and postfixed in 1% osmium tetroxide in the phosphate buffer for 1 h at room temperature. Bacterial cells were dehydrated with sequential ethanol concentrations (30–100%) and coated for the observations under scanning electron microscope.

Structures are written as SMILES. Converted amounts (≈) assume the structure as drawn. “Also recorded” adds a separate entry of the source.

As usually defined, the IC50 is the concentration that inhibits the measured activity by half. On to `COc1cc(-c2oc3cc(O)cc(O)c3c(=O)c2OC)ccc1O` [3,3′-di-O-Methylquercetin], for which the IC50 in assay [1] was 10.1 ± 1.15 µg/mL (≈ 30.6 µM); in assay [2] it was above 150 µg/mL. Further, the results for the MIC in assay [3], in assay [4] and in assay [5] were 250 µg/mL (≈ 757 µM), above 250 µg/mL and 125 µg/mL (≈ 378 µM), respectively. In addition, the “Morphological changes of bacterial cells (scanning electron microscopy)” value was “induced damage in bacterial cell walls and cytoplasmic membranes” in assay [6]; “Damages on both the bacterial cell wall and the cytoplasmic membrane; also recorded: Leakage of intracellular constituents” in assay [6] (listed as 3,3′-di-O-methylquercetin).
